Results reported in patent US20260374766A1, “METHODS FOR TREATING CANCER” (Antares Therapeutics, Inc., priority 2022, published 2026).
pIC50, pKd: −log10 of the molar value.

Columns and labels:
[1] = tested on: H1299 p53 Y220C; test: Cell Proliferation Assay (CellTiter-Glo, CTG), H1299 p53 Y220C (NClH1299-inducible p53 Y220C); format: cell-based; settings: Homo sapiens, NCI-H1299, 120 h, CellTiter-Glo, H1299 p53 Y220C, 5 days
Method in brief: (§1)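 Tet-One inducible p53 Y220C or R273H constructs were stably introduced into NCI-H1299 by lentiviral transduction; NUGC3 was used as is. Cells (250-500 per well) were exposed to compound for 5 days, then CellTiter-Glo was added for 10 min at room temperature and IC50 was calculated from luminescence.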

[2] = tested on: H1299 p53 R273H; test: Cell Proliferation Assay (CellTiter-Glo, CTG), H1299 p53 R273H (NClH1299-inducible p53 R273H); format: cell-based; settings: Homo sapiens, NCI-H1299, 120 h, CellTiter-Glo, H1299 p53 R273H, 5 days
Method in brief: as §1

[3] = molecular target: p53 Y220C (Homo sapiens, UniProt P04637, Y220C); test: Luciferase Reporter Assay (Luc), p53 response element, NClH1299 cells with inducible p53 Y220C; format: cell-based; settings: luciferase reporter, NClH1299 inducible p53 Y220C, 6 hour; for Emax: 10 uM tool compound as positive control; for AC50: read-out: Luc P53 Y220C AC50
Method in brief: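 Steps: seed 5,000 cells/well; induce mutant p53 with 0.5 ug/mL doxycycline for 24 h; treat with compound 6 h; add equal volume One-Glo, shake 5 min at room temperature; measure luciferase immediately.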

[4] = molecular target: T1, p53 Y220C mutant protein (amino acid residues 94-293) (Homo sapiens, UniProt P04637, Y220C); test: Thermal Shift Assay (TSA), dTM; format: binding; settings: thermal shift; for ΔTm at 10 µM: 10 uM compound, read-out: TSA P53 Y220C dTM (10 uM); for ΔTm at 100 µM: 100 uM compound, read-out: TSA P53 Y220C dTM (100 uM)
T1 construct: p53 Y220C mutant protein (amino acid residues 94-293)
Method in brief: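 5 μM protein + 10 μM or 100 μM cpd, 3 h, 20 °C; 20 mM HEPES pH7.4, 100 mM NaCl, 0.01% Pluronic F-127, 1% DMSO, Sypro Orange 400-fold dil. Ramp 30→50 °C, 0.03 °C/s. TM by Boltzmann two-state fit.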

[5] = tested on: NUGC3 p53 Y220C; test: Cell Proliferation Assay (CellTiter-Glo, CTG), NUGC3 p53 Y220C; format: cell-based; settings: Homo sapiens, NUGC-3, 120 h, CellTiter-Glo, NUGC3 p53 Y220C, 5 days
Method in brief: as §1

[6] = molecular target: T1, p53 Y220C mutant protein (amino acid residues 94-293); test: Surface Plasmon Resonance (SPR) assay, Kd_kinetic; format: binding; settings: SPR, kinetic KD, p53 Y220C; read-out: SPR P53 Y220C KD kinetic
Method in brief: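 Kinetic dissociation constants derived by 1:1 model fit of SPR data acquired at 16 or 20 °C, pH 7.5 Tris/NaCl running buffer with 1% DMSO.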

Row | pIC50 [1] | pIC50 [2] | Emax [3] [%] | AC50 [3] [nM] | ΔTm at 10 µM [4] [°C] | ΔTm at 100 µM [4] [°C] | pKd [6] | SMILES | pIC50 [5]
1 | > 6.12 | > 5.30 | 80 to 90 | < 750 | ≥ 10 | ≥ 10 | > 8.00 | CNC(=O)c1ccc(OC)c(NCC#Cc2nc3c(N[C@@H]4CCN(C)C[C@@H]4F)cccn3c2SC(F)F)c1 [Example 167] | > 6.12
2 | 5.82 to 6.12 | 5.10 to 5.30 | 70 to 80 | 750 to 1500 | 5 to 10 | ≥ 10 | 7.00 to 8.00 | CNC(=O)c1ccc(NCC#Cc2nc3c(N[C@@H]4CCn5cncc5C4)cccn3c2SC(F)(F)F)c(OC)c1 [Example 176] | 5.52 to 5.82
3 | 5.82 to 6.12 | 5.10 to 5.30 | < 70 | 1500 to 3000 | 5 to 10 | 5 to 10 | 7.00 to 8.00 | CNC(=O)c1ccc(NCC#Cc2nc3c(N[C@H]4CCn5nccc5C4)cccn3c2SC(F)(F)F)c(OC)c1 [Example 178] | 5.82 to 6.12
4 | 5.52 to 5.82 | ≤ 5.00 | < 70 | 1500 to 3000 | 5 to 10 | 5 to 10 | 7.00 to 8.00 | CNC(=O)c1ccc(NCC#Cc2nc3c(N[C@@H]4CCn5nccc5C4)cccn3c2SC(F)(F)F)c(OC)c1 [Example 179] | 5.52 to 5.82
5 | 5.82 to 6.12 | 5.10 to 5.30 | 80 to 90 | 1500 to 3000 | 5 to 10 | 5 to 10 | 7.00 to 8.00 | CNC(=O)c1ccc(NCC#Cc2nc3c(NCC4(F)CN(C)C4)cccn3c2SC(F)(F)F)c(OC)c1 [Example 181] | 5.52 to 5.82
6 | 5.52 to 5.82 | ≤ 5.00 | 80 to 90 | 1500 to 3000 | 5 to 10 | 5 to 10 | 7.00 to 8.00 | CNC(=O)c1ccc(NCC#Cc2nc3c(N[C@@H]4CCC(=O)NC4)cccn3c2SC(F)(F)F)c(OC)c1 [Example 182] | 5.52 to 5.82
7 | 5.52 to 5.82 | 5.10 to 5.30 | 70 to 80 | 1500 to 3000 | 5 to 10 | ≥ 10 | > 8.00 | CNC(=O)c1ccc(NCC#Cc2nc3c(N[C@H]4Cc5cncn5C4)cccn3c2SC(F)(F)F)c(OC)c1 [Example 184] | 5.82 to 6.12
8 | > 6.12 | ≤ 5.00 | > 90 | < 750 | ≥ 10 | – | > 8.00 | CNC(=O)c1cc(NCC#Cc2cc3c(N[C@@H]4CCN(C)C[C@@H]4F)nccn3c2SC(F)(F)F)c2nccn2c1 [Example 186, 8-{[3-(1-{[(3S,4R)-3-fluoro-1-methylpiperidin-4-yl]amino}-6-[(trifluoromethyl)sulfanyl]pyrrolo[1,2-a]pyrazin-7-yl)prop-2-yn-1-yl]amino}-N-methylimidazo[1,2-a]pyridine-6-carboxamide] | > 6.12
9 | 5.82 to 6.12 | ≤ 5.00 | 80 to 90 | 750 to 1500 | 5 to 10 | ≥ 10 | 7.00 to 8.00 | CNC(=O)c1ccc(NCC#Cc2nc3c(N[C@@H]4CCC(=O)N(C)C4)cccn3c2SC(F)(F)F)c(OC)c1 [Example 188] | 5.82 to 6.12
10 | < 5.52 | ≤ 5.00 | < 70 | > 3000 | ≥ 10 | ≥ 10 | > 8.00 | CNC(=O)c1ccc(NCC#Cc2nc3c(N[C@@H]4CCc5nncn5C4)cccn3c2SC(F)(F)F)c(OC)c1 [Example 192] | < 5.52

Continued, molecule first:

Row | SMILES | pIC50 [1] | pIC50 [2] | Emax [3] [%] | AC50 [3] [nM] | ΔTm at 10 µM [4] [°C] | ΔTm at 100 µM [4] [°C] | pKd [6] | pIC50 [5]
11 | COc1ccc(C(N)=O)nc1NCC#Cc1nc2c(N[C@@H]3CCN(C)C[C@@H]3F)cccn2c1SC(F)(F)F [Example 166] | > 6.12 | ≤ 5.00 | 80 to 90 | < 750 | ≥ 10 | ≥ 10 | > 8.00 | > 6.12
12 | CNC(=O)c1ccc(NCC#Cc2nc3c(N[C@H]4CCN(C)C(=O)C4)cccn3c2SC(F)(F)F)c(OC)c1 [Example 168] | > 6.12 | ≤ 5.00 | > 90 | 750 to 1500 | ≥ 10 | 5 to 10 | > 8.00 | > 6.12
13 | CNC(=O)c1ccc(NCC#Cc2nc3c(N[C@@H]4CCN(C)C(=O)C4)cccn3c2SC(F)(F)F)c(OC)c1 [Example 169] | < 5.52 | ≤ 5.00 | 70 to 80 | > 3000 | 5 to 10 | 5 to 10 | 7.00 to 8.00 | < 5.52
14 | CNC(=O)c1cc(NCC#Cc2nc3c(N[C@@H]4CCN(C)C[C@@H]4F)cccn3c2SC(F)(F)F)c(OC)cc1F [Example 170] | > 6.12 | ≤ 5.00 | 80 to 90 | < 750 | ≥ 10 | ≥ 10 | > 8.00 | > 6.12
15 | CNC(=O)c1ccc(OC)c(NCC#Cc2nc3c(N[C@@H]4CN(C)C[C@@H]4F)cccn3c2SC(F)(F)F)n1 [Example 171] | > 6.12 | ≤ 5.00 | 70 to 80 | < 750 | ≥ 10 | ≥ 10 | > 8.00 | > 6.12
16 | CNC(=O)c1ccc(OC)c(NCC#Cc2nc3c(N[C@@H]4CNC[C@@H]4F)cccn3c2SC(F)(F)F)n1 [Example 172] | > 6.12 | 5.10 to 5.30 | 70 to 80 | < 750 | ≥ 10 | ≥ 10 | > 8.00 | > 6.12
17 | CNC(=O)c1ccc(NCC#Cc2nc3c(NC4CC5(C4)CN(CC(F)F)C5)cccn3c2SC(F)(F)F)c(OC)c1 [Example 173] | 5.82 to 6.12 | 5.10 to 5.30 | 70 to 80 | 750 to 1500 | 5 to 10 | 5 to 10 | 7.00 to 8.00 | 5.52 to 5.82
18 | CNC(=O)c1ccc(NCC#Cc2nc3c(N[C@H]4CCNC(=O)C4)cccn3c2SC(F)(F)F)c(OC)c1 [Example 174] | 5.52 to 5.82 | ≤ 5.00 | 80 to 90 | 1500 to 3000 | ≥ 10 | ≥ 10 | > 8.00 | 5.82 to 6.12
19 | CNC(=O)c1ccc(NCC#Cc2nc3c(N[C@@H]4CCNC(=O)C4)cccn3c2SC(F)(F)F)c(OC)c1 [Example 175] | < 5.52 | ≤ 5.00 | < 70 | > 3000 | 5 to 10 | 5 to 10 | 7.00 to 8.00 | < 5.52
20 | CNC(=O)c1ccc(NCC#Cc2nc3c(N[C@H]4CCn5cncc5C4)cccn3c2SC(F)(F)F)c(OC)c1 [Example 177] | > 6.12 | 5.10 to 5.30 | 80 to 90 | < 750 | ≥ 10 | ≥ 10 | > 8.00 | 5.82 to 6.12
21 | CNC(=O)c1ccc(NCC#Cc2nc3c(N[C@@H]4CCN(C)C[C@@H]4F)cc(F)cn3c2SC(F)(F)F)c(OC)c1 [Example 180] | > 6.12 | 5.10 to 5.30 | 80 to 90 | < 750 | ≥ 10 | ≥ 10 | > 8.00 | 5.82 to 6.12
22 | CNC(=O)c1ccc(NCC#Cc2nc3c(N[C@H]4CCC(=O)NC4)cccn3c2SC(F)(F)F)c(OC)c1 [Example 183] | 5.52 to 5.82 | ≤ 5.00 | 80 to 90 | 1500 to 3000 | 5 to 10 | 5 to 10 | 7.00 to 8.00 | 5.82 to 6.12
23 | CNC(=O)c1ccc(NCC#Cc2nc3c(N[C@H]4CCC(=O)N(C)C4)cccn3c2SC(F)(F)F)c(OC)c1 [Example 187] | > 6.12 | 5.10 to 5.30 | 80 to 90 | < 750 | ≥ 10 | ≥ 10 | > 8.00 | > 6.12
24 | CNC(=O)c1ccc(NCC#Cc2nc3c(N[C@H]4CCc5nncn5C4)cccn3c2SC(F)(F)F)c(OC)c1 [Example 191] | < 5.52 | ≤ 5.00 | < 70 | > 3000 | 5 to 10 | ≥ 10 | > 8.00 | < 5.52
